Details of data set [1]: species or system mice. The settings on record: mouse, in vivo, iv, 10 mg/kg/day. From the text: Initial studies on the toxicity of the compound of Example 1 were made on mice.
for 5 days Per Day Test Toxicity

Data set [2] relates to HIV. Nature of the data set: Reduction of HIV cytopathic effect, MT2V (MT2 cells, free virus). The settings on record: Human immunodeficiency virus 1, read-out: Activity of Anti-HIV Compounds (EC50), MT2V. In kind it is cell-based. As to the method: The compounds of Examples were tested for anti-AIDS activity by subjecting them to standard National Cancer Institute ("NCI") in vitro screening procedures. In carrying out each test, two blanks were run. In the first blank, HIV and a culture of a standard human cell line were incubated together to measure the infectivity of the virus. The viability of the cells was measured after holding for six or seven days. In an "effective" test, most cells were infected before the holding period was complete.
In the second blank, the cell line culture and the compound being tested (but not virus) were incubated together to measure the toxicity of the drug to the cellline. The viability of the cells was measured as a function of concentration of the compound, after holding for seven days. […]
Finally, the protective effects of the test compounds were measured. Each cell culture and test compound were incubated with the virus and the viability of the cells was measured as a function of compound concentration after holding for six or seven days. […] At this point, cell viability increases steadily toward 100% unless the toxic effect of the compound (as measured in the second blank) takes effect. […] The therapeutic index TI50 is calculated as IC50/EC50.
Values of test compound concentrations required for between 20 and 50% reduction of the viral cytopathic effect can also be determined. […]

Another data set has as its system CEM cells. Nature of the data set: Toxicity of test compound to uninfected CEM cell line (growth inhibition). In kind it is cell-based, human. To be noted: Homo sapiens, CCRF-CEM; CEM cells, uninfected, Table III; read-out: IC50 (50% inhibition of cell growth). As to the method:
(§1) In the second blank, the cell line culture and the compound being tested (but not virus) were incubated together to measure the toxicity of the drug to the cellline. The viability of the cells was measured as a function of concentration of the compound, after holding for seven days. Typically, the cells survive at low compound concentrations, but at some higher concentration, toxicity of the compound is manifested and the cells die. The concentration of the test compound that results in 50% inhibition of cell growth is defined as the IC50.
(§2) 1) T4 lymphocytes (CEM cell line) are exposed to HIV at a virus to cell ratio of approximately 0.05 and plated along with non-infected control cells in 96-well microtiter plates.
(§3) 2) Each candidate agent is dissolved in dimethyl sulfoxide (unless otherwise indicated), then diluted 1:200 in cell culture medium. Further dilutions (five-fold) are prepared before adding to an equal volume of medium containing either infected or noninfected cells.
(§4) 3) Cultures are incubated at 37° C. in a 5% carbon dioxide atmosphere for seven days (if six days the CEMV test is identified as CEM-6).
(§5) 4) The tetrazolium salt, XTT, is added to all wells, and cultures are incubated to allow formazan color development by viable cells.
(§6) 5) Individual wells are analyzed spectrophotometrically to quantity formazan production, and in addition are viewed microscopically for detection of viable cells and confirmation of protective activity.
(§7) 6) Drug-treated virus-infected cells are compared with drug-treated non-infected cells and with other appropriate controls (untreated infected and untreated non-infected cells, drug-containing wells without cells, etc.) on the same plate.
(§8) The compound of Example 3, viz., methyl 2-chloro-5-[[(5,6-dihydro-2-methyl-1,4-oxathiin-3-yl)carbonyl]amino]benzoate, was tested against the H9/HTLV-IIIB (HIV-I) virus employing the CEM line of host cells and using free virus innoculation (denoted CEM-V). […] All concentrations are expressed in moles per liter.
(§9) The dashed line connecting the square symbols depicts the percentage of surviving uninfected cells treated with the sample relative to the same uninfected, untreated controls. This line expresses the in-vitro growth inhibitory properties of the sample and represents the second blank test.

Assay in data set [3]: as above
The format is cell-based, human. To be noted: human, cem cells, read-out: UNINFECTED CULTURE Response (%). As to the method: as §1, §2, §3, §4, §5, §6, §7, §8, §9

In data set [4] the test system is HIV. Nature of the data set: microbe, parasite or virus in culture. In kind it is cell-based. In short, it runs like this:
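CEM (or MT2) cells infected with HIV at virus:cell ratio ~0.05 (free virus or infected cells), with […] compound dilutions from DMSO, 7 days (6 for CEM-6) at 37° C, 5% CO2. Viability by XTT formazan; EC50 = 50% reduction of viral cytopathic effect, IC50 = 50% growth inhibition of uninfected cells; CEMZ includes sub-effective AZT.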

Data set [5] deals with HIV. As to the kind of experiment: HIV antiviral activity with addition delayed after infection. The format is cell-based.
A further data set relates to various fungi. The settings on record: variety of crops; cited from earlier work.
Another data set relates to host DNA synthesis. To be noted: administration of AZT; cited from earlier work.

Here are results for four compounds from US5268389A, “Thiocarboxylate ester compounds compositions containing the same” (priority 1990, dated 1993).

What is called EC50 is the concentration needed to bring the measured effect to its halfway point. `CC1=C(C(=O)Nc2ccc(Cl)c(C(=O)OC(C)C)c2)SCCO1` [Compound 1, 1-Methylethyl 2-chloro-5-[[(5,6-dihydro-2-methyl-1,4-oxathiin-3-yl)carbonyl]amino]benzoate]: the “Result, Toxicity” value in data set [1] was “No visible sign”. Besides, the concentration for a half-maximal effect (EC50) in the data set with HIV [2] was found to be 2600 nM.
What is called IC50 is the concentration that inhibits the measured activity by half. Take `COC(=O)c1cc(NC(=O)C2=C(C)OCCS2)ccc1Cl` [Compound 3, Methyl 2-chloro-5-[[(5,6-dihydro-2-methyl-1,4-oxathiin-3-yl)carbonyl]amino]benzoate]: in the data set with CEM cells, the concentration for half-maximal inhibition (IC50) was 101 µM. For the same compound, the viability at 168 h, 172 µM in data set [3] (1.72 × 10^-4 Molar) came to 10.1%. Also, the viability at 168 h, 17.2 µM in data set [3] (1.72 × 10^-5 Molar) was 95.7%. In addition, the viability at 168 h, 1.72 µM in data set [3] (1.72 × 10^-6 Molar) is 84.6%. In addition, the viability at 168 h, 0.172 µM in data set [3] (1.72 × 10^-7 Molar) turned out to be 86.8%. In addition, the viability at 168 h, 54.4 µM in data set [3] (5.44 × 10^-5 Molar) is 97%. Further, the viability at 168 h, 5.45 µM in data set [3] (5.45 × 10^-6 Molar) worked out at 108%. The viability at 168 h, 0.546 µM in data set [3] (5.46 × 10^-7 Molar) is 84%. The viability at 168 h, 0.0547 µM in data set [3] (5.47 × 10^-8 Molar) was 86.8%. The “concentration of maximum effect” value with HIV [4] (CEM-V, Figure I, point 6) is listed as “about 1.7×10^-5 molar”. Further, the CONCLUSION entry in the data set with HIV [4] (CEM-V, Table III) was “ACTIVE”. In addition, the viability at 172 µM in the data set on HIV [4] (Human immunodeficiency virus 1, CCRF-CEM, 1.72 × 10^-4 Molar, read-out: INFECTED CULTURE Response (%)) turned out to be 10.7%. Further, the viability at 17.2 µM with HIV [4] (Human immunodeficiency virus 1, CCRF-CEM, 1.72 × 10^-5 Molar, read-out: INFECTED CULTURE Response (%)) came out at 89.2%. In addition, the viability at 0.172 µM in the data set with HIV [4] (Human immunodeficiency virus 1, CCRF-CEM, 1.72 × 10^-7 Molar, read-out: INFECTED CULTURE Response (%)) is 23.3%. Further, the viability at 54.4 µM in the data set with HIV [4] (Human immunodeficiency virus 1, CCRF-CEM, 5.44 × 10^-5 Molar, read-out: INFECTED CULTURE Response (%)) is 86.1%. Also, in the data set with HIV [4] (Human immunodeficiency virus 1, CCRF-CEM, 5.45 × 10^-6 Molar, read-out: INFECTED CULTURE Response (%)), the viability at 5.45 µM came to 78.8%. The viability at 0.546 µM in the data set on HIV [4] (Human immunodeficiency virus 1, CCRF-CEM, 5.46 × 10^-7 Molar, read-out: INFECTED CULTURE Response (%)) was found to be 15.7%. In addition, the viability at 0.0547 µM with HIV [4] (Human immunodeficiency virus 1, CCRF-CEM, 5.47 × 10^-8 Molar, read-out: INFECTED CULTURE Response (%)) was 15.3%. Also, the EC50 in the data set with HIV [4] (Human immunodeficiency virus 1, IIIB, CEM-V, H9/HTLV-IIIB (HIV-I), Table III, read-out: EC50 (50% reduction in the viral cytopathic effect)) amounted to 1910 nM. For the same compound, in the data set on HIV [4] (Human immunodeficiency virus 1, CEM-V, Figure I, point 5, read-out: concentration at which the compound began to show inhibition of the viral cytopathic effect), the minimal effective concentration was ~0.55 µM. Moreover, in the data set on HIV [5] (delays of up to twenty hours), the “protection with delayed addition” value is given as “delays of up to twenty hours will still offer some protection”. Moreover, in the data set with HIV [5] (up to eight hours after infection), the “full HIV antiviral activity after infection” value is “full HIV antiviral activity for up to eight hours after infection”.
For `CC1=C(C(=O)Nc2ccccc2)SCCO1` [carboxin, 5,6-dihydro-2-methyl-N-phenyl-1,4-oxathiin-3-carboxamide], in the data set with various fungi, the “control of fungi by seed treatment” value is recorded as “providing control by seed treatment of various fungi”.
Regarding `Cc1cn([C@H]2C[C@H](N=[N+]=[N-])[C@@H](CO)O2)c(=O)[nH]c1=O` [AZT, Azidothymidine], the side effects result with host DNA synthesis is “severe side effects, e.g., anemia, granulocytopenia, and thrombocytopenia”.
